Laboratory results as given in patent US10519134B2, “Pyrazole compounds and methods of making and using same” (Lundbeck La Jolla Research Center, Inc., priority 2015, dated 2019).

Legend:
[1] = target: T1, MAGL (Mus musculus, UniProt O35678); assay: In vitro competitive activity-based protein profiling (mouse), MAGL gel band; type: biochemical; conditions: for IC50: mouse; for inhibition at 1 µM: read-out: MAGL % inh. 1 μM
T1 construct: Proteomes (mouse brain membrane fraction or cell lysates); from tissue; host or cells: mouse brain membrane fraction (or cell lysates)
T1 sequence (O35678 1-303): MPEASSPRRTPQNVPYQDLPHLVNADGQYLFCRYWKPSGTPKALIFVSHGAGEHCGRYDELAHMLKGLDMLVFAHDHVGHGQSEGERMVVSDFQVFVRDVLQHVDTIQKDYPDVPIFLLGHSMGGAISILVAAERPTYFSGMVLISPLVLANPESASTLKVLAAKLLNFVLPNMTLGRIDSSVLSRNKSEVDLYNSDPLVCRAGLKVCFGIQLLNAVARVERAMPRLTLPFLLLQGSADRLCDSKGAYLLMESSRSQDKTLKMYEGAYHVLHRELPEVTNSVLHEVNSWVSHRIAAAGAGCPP
Summary of the method: (§1)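 Competitive ABPP: inhibitors at varying concentrations were given 30 min at 37 °C with mouse brain membranes or cell lysates (1.0 mg/mL total protein) before 30 min labelling by FP-Rh or HT-01 (stock 50 μM in DMSO). Residual hydrolase activity read as in-gel fluorescence of MAGL and FAAH bands.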

[2] = target: T1, MAGL; assay: Mouse brain proteomes from inhibitor treated mice (oral gavage, sacrificed 4 h after administration); type: in vivo; conditions: read-out: MAGL % inh. 5 mg/kg
Method: Compounds are tested to assess their MAGL and other serine hydrolase activity using the following in vitro and in vivo assays.
Preparation of Mouse Brain Proteomes from Inhibitor Treated Mice.
Inhibitors were administered to wild-type C57Bl/6J by oral gavage in a vehicle of polyethylene glycol. Each animal was sacrificed 4 h following administration and brain proteomes were prepared and analyzed according to previously established methods (See Niphakis, M. J., et al. (2011) ACS Chem. Neurosci. and Long, J. Z., et al. Nat. Chem. Biol. 5:37-44)

[3] = target: T2, FAAH (Mus musculus, UniProt O08914); assay: In vitro competitive activity-based protein profiling (mouse), FAAH gel band; type: biochemical; conditions: for IC50: mouse; for inhibition at 1 µM: read-out: FAAH % inh. 1 μM
T2 construct: Proteomes (mouse brain membrane fraction or cell lysates); from tissue; host or cells: mouse brain membrane fraction (or cell lysates)
T2 sequence (O08914 1-579): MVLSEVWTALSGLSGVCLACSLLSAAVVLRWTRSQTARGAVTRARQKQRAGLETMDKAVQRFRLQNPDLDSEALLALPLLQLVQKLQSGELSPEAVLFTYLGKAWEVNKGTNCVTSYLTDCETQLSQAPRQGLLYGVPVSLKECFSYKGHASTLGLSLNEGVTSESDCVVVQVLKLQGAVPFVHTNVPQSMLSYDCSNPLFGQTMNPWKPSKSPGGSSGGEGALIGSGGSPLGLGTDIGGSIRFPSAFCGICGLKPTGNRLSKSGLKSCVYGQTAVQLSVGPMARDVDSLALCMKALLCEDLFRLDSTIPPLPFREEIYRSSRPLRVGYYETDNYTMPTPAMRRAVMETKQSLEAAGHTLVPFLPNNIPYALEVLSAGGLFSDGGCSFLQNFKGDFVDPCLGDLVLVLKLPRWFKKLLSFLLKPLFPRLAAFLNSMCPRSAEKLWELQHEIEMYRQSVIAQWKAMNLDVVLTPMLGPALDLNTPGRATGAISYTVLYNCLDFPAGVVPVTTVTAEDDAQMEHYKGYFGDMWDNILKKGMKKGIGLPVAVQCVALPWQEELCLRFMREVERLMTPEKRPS
Summary of the method: as §1

## CC(=O)Nc1ccn(C(=O)N2CCN(Cc3ccc(C(F)(F)F)cc3N3CCCC3)CC2)n1 [Example 1, N-(1-(4-(2-(pyrrolidin-1-yl)-4-(trifluoromethyl)benzyl)piperazine-1-carbonyl)-1H-pyrazol-3-yl)acetamide]
[1]
  IC50: ≤ 100 nM
  inhibition at 1 µM: ≥ 75%
[2]
  inhibition at 5 mg/kg: ≥ 75%
[3]
  IC50: 1000 to 10000 nM
  inhibition at 1 µM: 0 to 25%

## CC(=O)Nc1ccn(C(=O)N2CCN(Cc3ccc(C(F)(F)F)cc3N3CCOCC3)CC2)n1 [Example 3, N-(1-(4-(2-morpholino-4-(trifluoromethyl)benzyl)piperazine-1-carbonyl)-1H-pyrazol-3-yl)acetamide]
[1]
  IC50: ≤ 100 nM
  inhibition at 1 µM: ≥ 75%
[2]
  inhibition at 5 mg/kg: 50 to 75%
[3]
  IC50: 1000 to 10000 nM
  inhibition at 1 µM: 0 to 25%

## CC(=O)Nc1ccn(C(=O)N2CCN(Cc3ccc(C(F)(F)F)cc3N3CCC(F)CC3)CC2)n1 [Example 4, N-(1-(4-(2-(4-fluoropiperidin-1-yl)-4-(trifluoromethyl)benzyl)piperazine-1-carbonyl)-1H-pyrazol-3-yl)acetamide]
[1]
  IC50: ≤ 100 nM
  inhibition at 1 µM: ≥ 75%
[2]
  inhibition at 5 mg/kg: ≥ 75%
[3]
  IC50: 1000 to 10000 nM
  inhibition at 1 µM: 0 to 25%

## CC(=O)Nc1ccn(C(=O)N2CCN(Cc3ccc(Cl)cc3N3CCCC3)CC2)n1 [Example 5, N-(1-(4-(4-chloro-2-(pyrrolidin-1-yl)benzyl)piperazine-1-carbonyl)-1H-pyrazol-3-yl)acetamide]
[1]
  IC50: ≤ 100 nM
  inhibition at 1 µM: ≥ 75%
[2]
  inhibition at 5 mg/kg: ≥ 75%
[3]
  IC50: 1000 to 10000 nM
  inhibition at 1 µM: 0 to 25%

## CC(=O)Nc1ccn(C(=O)N2CCN(Cc3ccc(Cl)cc3N3CCOCC3)CC2)n1 [Example 6, N-(1-(4-(4-chloro-2-morpholinobenzyl)piperazine-1-carbonyl)-1H-pyrazol-3-yl)acetamide]
[1]
  IC50: ≤ 100 nM
  inhibition at 1 µM: ≥ 75%
[2]
  inhibition at 5 mg/kg: 25 to 50%
[3]
  IC50: 1000 to 10000 nM
  inhibition at 1 µM: 0 to 25%

## CC(C)C(=O)Nc1ccn(C(=O)N2CCN(Cc3ccc(C(F)(F)F)cc3N3CCCC3)CC2)n1 [Example 263, N-(1-(4-(2-(pyrrolidin-1-yl)-4-(trifluoromethyl)benzyl)piperazine-1-carbonyl)-1H-pyrazol-3-yl)isobutyramide]
[1]
  IC50: 100 to 1000 nM
  inhibition at 1 µM: ≥ 75%
[3]
  IC50: 1000 to 10000 nM
  inhibition at 1 µM: 0 to 25%

## CS(=O)(=O)Nc1ccn(C(=O)N2CCC3(CCCN3Cc3ccc(Cl)cc3N3CCOCC3)CC2)n1 [Example 264, N-(1-(1-(4-chloro-2-morpholinobenzyl)-1,8-diazaspiro[4.5]decane-8-carbonyl)-1H-pyrazol-3-yl) methanesulfonamide]
[1]
  inhibition at 1 µM: 25 to 50%
[3]
  inhibition at 1 µM: 0 to 25%

## CC(=O)Nc1ccn(C(=O)N2CCC3(CCCN3Cc3ccc4nc(C)oc4c3)CC2)n1 [Example 265, N-(1-(1-((2-methylbenzo[d]oxazol-6-yl)methyl)-1,8-diazaspiro[4.5]decane-8-carbonyl)-1H-pyrazol-3-yl)acetamide]
[1]
  IC50: 100 to 1000 nM
  inhibition at 1 µM: ≥ 75%
[3]
  IC50: 1000 to 10000 nM
  inhibition at 1 µM: 0 to 25%

## CS(=O)(=O)Nc1ccn(C(=O)N2CCN(Cc3ccc(Cl)c(C4CCCC4)c3)CC2)n1 [Example 272, N-(1-(4-(4-chloro-3-cyclopentylbenzyl)piperazine-1-carbonyl)-1H-pyrazol-3-yl) methanesulfonamide]
[1]
  inhibition at 1 µM: ≥ 75%
[3]
  inhibition at 1 µM: 0 to 25%

## CS(=O)(=O)Nc1ccn(C(=O)N2CCN(Cc3cccc(C(F)(F)F)c3N3CCC(F)CC3)CC2)n1 [Example 273, N-(1-(4-(2-(4-fluoropiperidin-1-yl)-3-(trifluoromethyl)benzyl)piperazine-1-carbonyl)-1H-pyrazol-3-yl) methanesulfonamide]
[1]
  inhibition at 1 µM: ≥ 75%
[3]
  inhibition at 1 µM: 0 to 25%

## CC(=O)Nc1ccn(C(=O)N2CCN(Cc3ccc(C(F)(F)F)cc3N3CCC(C(N)=O)CC3)CC2)n1 [Example 274, 1-(2-((4-(3-acetamido-1H-pyrazole-1-carbonyl)piperazin-1-yl)methyl)-5-(trifluoromethyl)phenyl)piperidine-4-carboxamide]
[1]
  inhibition at 1 µM: ≥ 75%
[3]
  inhibition at 1 µM: 0 to 25%

## CC(=O)Nc1ccn(C(=O)N2CCN(Cc3ccc(C(F)(F)F)cc3N3CCC(NC(C)=O)CC3)CC2)n1 [Example 275, N-(1-(2-((4-(3-acetamido-1H-pyrazole-1-carbonyl)piperazin-1-yl)methyl)-5-(trifluoromethyl)phenyl)piperidin-4-yl)acetamide]
[1]
  inhibition at 1 µM: ≥ 75%
[3]
  inhibition at 1 µM: 0 to 25%

## CC(=O)Nc1ccn(C(=O)N2CCN(Cc3ccc(C(F)(F)F)cc3N3CCC(O)CC3)CC2)n1 [Example 276, N-(1-(4-(2-(4-hydroxypiperidin-1-yl)-4-(trifluoromethyl)benzyl)piperazine-1-carbonyl)-1H-pyrazol-3-yl)acetamide]
[1]
  inhibition at 1 µM: ≥ 75%
[3]
  inhibition at 1 µM: 0 to 25%

## CC(=O)Nc1ccn(C(=O)N2CCN(Cc3ccc(C(F)(F)F)cc3N3CCN(CC(=O)O)CC3)CC2)n1 [Example 277, 2-(4-(2-((4-(3-acetamido-1H-pyrazole-1-carbonyl)piperazin-1-yl)methyl)-5-(trifluoromethyl)phenyl)piperazin-1-yl)acetic acid]
[1]
  inhibition at 1 µM: ≥ 75%
[3]
  inhibition at 1 µM: 0 to 25%

## CS(=O)(=O)Nc1ccn(C(=O)N2CCN(Cc3ccc(C(F)(F)F)c(N4CCN5CCC[C@@H]5C4)c3)CC2)n1 [Example 278, (R)-N-(1-(4-(3-(hexahydropyrrolo[1,2-a]pyrazin-2(1H)-yl)-4-(trifluoromethyl)benzyl)piperazine-1-carbonyl)-1H-pyrazol-3-yl) methanesulfonamide]
[1]
  inhibition at 1 µM: ≥ 75%
[3]
  inhibition at 1 µM: 0 to 25%

## CC(=O)NC1CCN(c2cc(CN3CCN(C(=O)n4ccc(NS(C)(=O)=O)n4)CC3)ccc2C(F)(F)F)CC1 [Example 279, N-(1-(5-((4-(3-(methylsulfonamido)-1H-pyrazole-1-carbonyl)piperazin-1-yl)methyl)-2-(trifluoromethyl)phenyl)piperidin-4-yl)acetamide]
[1]
  inhibition at 1 µM: ≥ 75%
[3]
  inhibition at 1 µM: 0 to 25%

## CC(C)(O)C1CCN(c2cc(CN3CCN(C(=O)n4ccc(NS(C)(=O)=O)n4)CC3)ccc2C(F)(F)F)CC1 [Example 280, N-(1-(4-(3-(4-(2-hydroxypropan-2-yl)piperidin-1-yl)-4-(trifluoromethyl)benzyl)piperazine-1-carbonyl)-1H-pyrazol-3-yl) methanesulfonamide]
[1]
  inhibition at 1 µM: ≥ 75%
[3]
  inhibition at 1 µM: 0 to 25%

## CS(=O)(=O)Nc1ccn(C(=O)N2CCN(Cc3ccc(C(F)(F)F)c(N4CCN(CC(=O)O)CC4)c3)CC2)n1 [Example 281, 2-(4-(5-((4-(3-(methylsulfonamido)-1H-pyrazole-1-carbonyl)piperazin-1-yl)methyl)-2-(trifluoromethyl)phenyl)piperazin-1-yl)acetic acid]
[1]
  inhibition at 1 µM: 0 to 25%
[3]
  inhibition at 1 µM: 0 to 25%

## CS(=O)(=O)Nc1ccn(C(=O)N2CCN(Cc3ccc(Cl)c(N4CCN(S(C)(=O)=O)CC4)c3)CC2)n1 [Example 282, N-(1-(4-(4-chloro-3-(4-(methylsulfonyl)piperazin-1-yl)benzyl)piperazine-1-carbonyl)-1H-pyrazol-3-yl) methanesulfonamide]
[1]
  inhibition at 1 µM: ≥ 75%
[3]
  inhibition at 1 µM: 0 to 25%

## CS(=O)(=O)Nc1ccn(C(=O)N2CCN(Cc3ccc(Cl)c(-c4cnccn4)c3)CC2)n1 [Example 283, N-(1-(4-(4-chloro-3-(pyrazin-2-yl)benzyl)piperazine-1-carbonyl)-1H-pyrazol-3-yl) methanesulfonamide]
[1]
  inhibition at 1 µM: ≥ 75%
[3]
  inhibition at 1 µM: 0 to 25%

## CC(=O)N1CCN(c2cc(CN3CCN(C(=O)n4ccc(NS(C)(=O)=O)n4)CC3)ccc2Cl)CC1 [Example 284, N-(1-(4-(3-(4-acetylpiperazin-1-yl)-4-chlorobenzyl)piperazine-1-carbonyl)-1H-pyrazol-3-yl) methanesulfonamide]
[1]
  IC50: 100 to 1000 nM
  inhibition at 1 µM: ≥ 75%
[3]
  IC50: 1000 to 10000 nM
  inhibition at 1 µM: 0 to 25%
